Reference: US20250001009A1, “THERAPY FOR PROGRAMMED CELL DEATH IN A SUBJECT TRANSPLANTED WITH A DONOR LIVER CARRYING THE PNPLA3 RS738409:G VARIANT” (priority 2021, published 2025)
“Also recorded” adds a separate entry of the source.

How the values were obtained:
[1] = system: donor hepatocytes positive for the PNPLA3 rs738409:G variant; assay: Cell viability / survival (Alamar Blue) of primary human hepatocytes; assay type: cell-based
Method: To evaluate the protective effects of deferoxamine, primary human hepatocytes were treated with 100 μM deferoxamine (DFO, Sigma-Aldrich, Saint-Louis, MO) for 24 hours in suspension. To evaluate the protective effects of GSH, primary human hepatocytes on collagen-coated plates were treated with 10 μM reduced L-glutathione (GSH, G4251, Sigma-Aldrich, Saint-Louis, MO) for 48 hours. Cell Viability Measurements: Cell viability was assessed in 96-well format using Alamar Blue (Invitrogen, Carlsbad, CA) absorbance (570 nm/600 nm) measured on a synergy HTX microplate reader (Biotek, Winooski, VT) 24 hours after ferroptosis induction. Post thaw viability of primary human hepatocytes was evaluated by Trypan blue dye exclusion counting using a Countess 3 automated cell counter (Invitrogen, Carlsbad, CA).

[2] = system: donor hepatocytes positive for the PNPLA3 rs738409:G variant; assay: Mitochondrial shape by transmission electron microscopy; assay type: cell-based, human; conditions: in the presence of FINO2
Method: To evaluate the protective effects of deferoxamine, primary human hepatocytes were treated with 100 μM deferoxamine (DFO, Sigma-Aldrich, Saint-Louis, MO) for 24 hours in suspension. To evaluate the protective effects of GSH, primary human hepatocytes on collagen-coated plates were treated with 10 μM reduced L-glutathione (GSH, G4251, Sigma-Aldrich, Saint-Louis, MO) for 48 hours. Transmission electron microscopy: Human hepatocytes in suspension were briefly centrifugated and washed with PBS solution. Samples were then fixed with 2.5% glutaraldehyde over night at 4° C. Fixed samples were processed by the Center for Biologic Imaging at the University of Pittsburgh, and treated with 1% osmium tetroxide and 1% potassium ferricyanide for 1 hour at room temperature. Samples were washed with PBS and dehydrated in a graded series of ethanol solution (30%, 50%, 70%, and 90% ethanol; 10 minutes each) and three 15-minute incubations in fresh 100% ethanol. Infiltration/embedding was done with three 1-hour incubations of epon. The last change of epon was removed and beam capsules filled with resin were inverted over relevant areas of the monolayers. […] Mitochondrial shape was evaluated as published previously using ImageJ (Merrill et al. in Techniques to Investigate Mitochondrial Function in Neurons, 123:31-48. Neuromethods. Springer New York, 2017).

[3] = system: donor hepatocytes positive for the PNPLA3 rs738409:G variant; assay: Lipid peroxidation (C11-BODIPY / MDA) in primary human hepatocytes; assay type: cell-based
Method: To evaluate the protective effects of deferoxamine, primary human hepatocytes were treated with 100 μM deferoxamine (DFO, Sigma-Aldrich, Saint-Louis, MO) for 24 hours in suspension. To evaluate the protective effects of GSH, primary human hepatocytes on collagen-coated plates were treated with 10 μM reduced L-glutathione (GSH, G4251, Sigma-Aldrich, Saint-Louis, MO) for 48 hours. Analysis of Lipid Peroxidation: A oxidation-sensitive probe C11-BODIPY (581/591) (Invitrogen, Carlsbad, CA) was used to evaluate lipid peroxidation under a fluorescence microscope. Untreated hepatocytes were prepared using a cytocentrifuge, incubated for 30 min with 10 μM C11-BODIPY, and washed with PBS. Cultured cells were incubated with 10 μM C11-BODIPY dissolved in culture media for 30 min at 37° C. and washed with PBS. The fluorescent signal was evaluated 3 hours after induction of ferroptosis. Malondialdehyde (MDA) is a natural biproduct of lipid peroxidation and MDA quantification is used as marker for lipid peroxidation. The MDA content in primary human hepatocytes was quantified using a commercially available kit from Sigma-Aldrich (Sigma-Aldrich, Saint-Louis, MO). Cryopreserved primary human hepatocytes were pelleted and analyzed directly or were cultured for 3 hours in suspension before the analysis. […] The MDA-TBA adduct was quantified using fluorometric detection (ex/em=430 nm/590 nm).

Structure (SMILES): CC1(CCO)CC2(CCC(C(C)(C)C)CC2)OO1 (stereo not drawn) [FINO2, (5α,8α)-8-(1,1-dimethylethyl)-3-methyl-1,2-dioxaspiro[4.5]decane-3-ethanol, reference compound]
- donor hepatocyte survival ([1]; donor hepatocytes cultured in the presence of FINO2 (50 μM), 24 hours after ferroptosis induction): significant reduction in donor hepatocyte survival
- mitochondrial shape [2]: changed from a rod shape to a spherical shape
- lipid peroxidation ([3]; donor hepatocytes cultured in the presence of FINO2 (50 μM)): increased lipid peroxidation

Structure (SMILES): N[C@@H](CCC(=O)N[C@@H](CS)C(=O)NCC(=O)O)C(=O)O [GSH, reduced L-glutathione]
- survival ([1]; 10 μM reduced L-glutathione, 48 hours, collagen-coated plates, p=0.002): improves cell survival; also recorded: increased survival
- lipid peroxidation ([3]; 10 μM reduced L-glutathione, 48 hours, collagen-coated plates): reduces lipid peroxidation; also recorded: decreased lipid peroxidation
